The test system of one series is HIV. The series is described as follows: Inhibitory activity for HIV infection (protection of HIV-infected MT-4 cells from death). In kind it is cell-based. Particulars: 5 days incubation at 37° C., concentration preventing the death of 50% of the MT-4 cells. How it is done: Inhibitory activity for HIV infection
(§1) In RPMI 1640 DM culture medium containing 20 mM of Hepes buffer solution, 10% fetal bovine serum and 20 μg/ml of gentamycin, 3×10^4 MT-4 cells (human T cell clone which is destroyed by the infection of HIV) were infected with HIV in an amount of 100 times as large as expected to cause 50% infection of the cells. Immediately thereafter, a predetermined amount of sample was added to the culture medium using 50 mg/ml sample solutions in dimethyl sulfoxide and the cells were cultured at 37° C.
(§2) After 5 days of incubation, the number of existing cells was counted to determine the concentration of the compound for preventing the death of 50% of the MT-4 cells. Separately, MT-4 cells were cultured in the same way as above except that they were not infected with HIV to determine the concentration of the compound at which 50% of the MT-4 cells were destroyed.
In turn, “1-butyl-5-ethyl-6-phenylthiouracil [Compound 252]” displayed an IC50 of 16 nM. Same read-out and setting: under “1-(methylthiomethyl)-6-phenylthiothymine [Compound 32]” stands 1200 nM; under “1-ethoxymethyl-5-ethyl-6-phenylthiouracil [Compound 247]”, 16 nM. On the same count and under the same terms, under `COCn1c(Sc2ccccc2)c(C)c(=O)[nH]c1=O` [Compound 22, 1-(methoxymethyl)-6-phenylthiothymine] stands 2100 nM; under “1-[(2-phenylcarbamoyloxyethoxy) methyl]-6-m-tolylthiothymine [Compound 16]”, 21000 nM. Still for that read-out and setting: under “1-[(2-acetoxyethoxy)methyl]-6-phenylthiothymine [Compound 2]” stands 6700 nM; under “1-(4-hydroxybutyl) -6-phenylthiothymine [Compound 31]”, 13000 nM.

The series is the same for the next values; noted with them: Human immunodeficiency virus 1, MT4, 120 h, 5 days incubation at 37° C., concentration preventing the death of 50% of the MT-4 cells.
As for `CCOCn1c(Sc2ccccc2)c(CC)c(=O)[nH]c1=S` [Compound 358, 1-ethoxymethyl-5-ethyl-6-phenylthio-2-thiouracil], 26 nM corresponded to half-maximal inhibition (IC50). `CCOCn1c(Cc2ccccc2)c(CC)c(=O)[nH]c1=O` [Compound 472, 6-benzyl-1-ethoxymethyl-5-ethyluracil] had an IC50 of 41 nM.

In the case of `CC(=O)OCCOCn1c(Sc2ccccc2)c(C)c(=O)[nH]c1=S` [Compound 1, 1-[(2-acetoxyethoxy)methyl]-6-phenylthio-2-thiothymine], the IC50 is 2800 nM.

Another series relates to MT-4 cells. The series is described as follows: Cytotoxicity to MT-4 cells not infected with HIV. Particulars: 5 days incubation, concentration at which 50% of the MT-4 cells were destroyed. In kind it is cell-based. How it is done: as §1, §2
On to “1-(4-hydroxybutyl) -6-phenylthiothymine [Compound 31]”, for which the “50% cytotoxic concentration to MT-4 cells” value came to 249 µM.

For the origin of these results see patent USRE37979E1, “Pyrimidine derivatives and anti-viral agent containing the same as active ingredient thereof” (priority 1989, dated 2003).
